Results reported in PMC9221108 (2022).
Blank lines part the entries; values can stand above or below the compound they belong to.

Assays:
[1] = tested on: 5AG4-FAM (DNA, G4) AAAAAGGGTGGGTGGGTGGGTTTTT; test: FAM fluorescence quenching on hemin addition; conditions: K+ (varied); 10 mM Tris-HCl pH 8.4; K+-folded parallel G4
[2] = tested on: 5AG4 (DNA, G4) AAAAAGGGTGGGTGGGTGGGTTTTT; test: SGI fluorescence quenching on hemin addition; conditions: K+ (varied); 10 mM Tris-HCl pH 8.4, 0.2% Tween 20, 0.3x SGI; K+-folded parallel G4
[3] = tested on: OTAapt31 (DNA, aptamer) GATCGGGTGTGGGTGGCGTAAAGGGAGCATC; test: SGI fluorescence quenching; conditions: 6.25 mM Ca2+; 10 mM Tris-HCl pH 8.4, 0.3x SGI, 20 nM aptamer; tested at 62.5 nM
[4] = tested on: OTAapt31 (DNA, aptamer) GATCGGGTGTGGGTGGCGTAAAGGGAGCATC; test: SGI fluorescence enhancement; conditions: 6.25 mM Ca2+; 10 mM Tris-HCl pH 8.4, 0.3x SGI, 20 nM aptamer; no OTA; terminal duplex stem
[5] = tested on: OTAapt31 (DNA, aptamer) GATCGGGTGTGGGTGGCGTAAAGGGAGCATC; test: SGI fluorescence quenching on CV addition; conditions: 6.25 mM Ca2+; 10 mM Tris-HCl pH 8.4, 0.3x SGI; OTA-folded antiparallel G4
[6] = tested on: OTAapt31-FAM (DNA, aptamer) GATCGGGTGTGGGTGGCGTAAAGGGAGCATC; test: FAM fluorescence quenching on CV addition; conditions: 6.25 mM Ca2+; 10 mM Tris-HCl pH 8.4; OTA-folded antiparallel G4
[7] = tested on: OTAapt36 (DNA, aptamer) GATCGGGTGTGGGTGGCGTAAAGGGAGCATCGGACA; test: fluorescence quenching titration; conditions: 6.25 mM Ca2+; 10 mM Tris-HCl pH 8.4, 0.2% Tween 20, 0.3x SGI, 20 nM aptamer, room temperature; apparent
[8] = tested on: G31C (DNA, aptamer) GGATCGGGTGTGGGTGGCGTAAAGGGAGCATCC; test: fluorescence quenching titration; conditions: 6.25 mM Ca2+; 10 mM Tris-HCl pH 8.4, 0.2% Tween 20, 0.3x SGI, 20 nM aptamer, room temperature; apparent
[9] = tested on: OTAapt31 (DNA, aptamer) GATCGGGTGTGGGTGGCGTAAAGGGAGCATC; test: fluorescence quenching titration; conditions: 6.25 mM Ca2+; 10 mM Tris-HCl pH 8.4, 0.2% Tween 20, 0.3x SGI, 20 nM aptamer, room temperature; apparent
[10] = tested on: OTAapt31-FAM (DNA, aptamer) GATCGGGTGTGGGTGGCGTAAAGGGAGCATC; test: FAM fluorescence quenching titration; conditions: 6.25 mM Ca2+; 10 mM Tris-HCl pH 8.4, room temperature; apparent

SMILES: C=CC1=C(C)C2=Cc3c(C=C)c(C)c4[n]3[Fe]([Cl])[n]3c(c(C)c(CCC(=O)O)c3=CC3=NC(=C4)C(C)=C3CCC(=O)O)=CC1=N2
binding [1]: yes
binding [2]: yes

SMILES: CCCN(CCCN(C)C)c1cc(C=C2Sc3ccccc3N2C)c2ccccc2[n+]1-c1ccccc1
binding [4]: yes

SMILES: CN(C)c1ccc(C(=C2C=CC(=[N+](C)C)C=C2)c2ccc(N(C)C)cc2)cc1
binding [5]: yes
binding [6]: yes

SMILES: C[C@@H]1Cc2c(Cl)cc(C(=O)N[C@@H](Cc3ccccc3)C(=O)O)c(O)c2C(=O)O1
IC50 [7]: 55.7 nM
IC50 [8]: 17.8 nM
IC50 [9]: 20.6 nM
IC50 [10]: 19.8 nM

SMILES: C[C@H]1CCCC(=O)CCC/C=C/c2cc(O)cc(O)c2C(=O)O1
binding [3]: no

Further lines, results first:

binding [3]: no
SMILES: CCCC[C@@H](C)[C@@H](OC(=O)C[C@@H](CC(=O)O)C(=O)O)[C@H](C[C@@H](C)C[C@H](O)CCCC[C@@H](O)C[C@H](O)[C@H](C)N)OC(=O)C[C@@H](CC(=O)O)C(=O)O

binding [3]: no
SMILES: C[C@@H]1Cc2ccc(C(=O)N[C@@H](Cc3ccccc3)C(=O)O)c(O)c2C(=O)O1

binding [3]: no
SMILES: O=C1C=C2C(=CCOC2O)O1 (stereo not shown)
